{"source": "patent US12280168B2", "about": "“Method for sanitization of a chromatography column” (Cytiva Sweden AB, priority 2019, dated 2025)", "format_in_all_cases": "cell-based", "key": {"[1]": {"tested_on": "Pseudomonas aeruginosa, ATCC 9027", "experiment": "Sanitization study 1: AxiChrom 300 column packed with resin inoculated with challenging organism, sanitized with peracetic acid", "method": "(§1) A predefined sanitization method based on peracetic acid (PAA) as sanitization agent was evaluated in an AxiChrom™ 300 column (GE Healthcare) packed with agarose beads, as used in the MabSelect™ SuRe Protein A resin (GE Healthcare), by triplicate studies using P. aeruginosa as challenging organism. All parts in contact with the process flow including the resin were pre-cleaned, challenged, sanitized and evaluated. Microbial sampling was performed at predetermined sites on the system. Flow through samples were collected from the process chamber during the run and from the flush channel, process chamber and resin valve after finishing the sanitization method. Additional flow through samples were collected after five to six days of clean hold. Test methods used are presented below. The results were evaluated against stated acceptance criteria.\n(§2) Pseudomonas aeruginosa, ATCC 9027, Gram negative bacteria\n(§3) 1×10^7 CFU/ml or CFU/unit (CFU=Colony forming unit) […]\n(§4) TSA plates streaked with P. aeruginosa ATCC 9027 (in-house glycerol stocks) were incubated in 37° C. over night (O.N.). […] O.N. Based on measured optical densities (ODs) of the inoculates and the assumption that 1 OD≈2×10^9 CFU/mL for P. aeruginosa, calculations were made on the volumes needed of the inoculate to be added to the resin slurry suspended in 50 mM NaCl. […] The microorganism concentrations were determined with test method 5. […]"}, "[2]": {"tested_on": "Pseudomonas aeruginosa, ATCC 9027", "experiment": "Sanitization study 2: dual adapter strokes, 100 mM PAA in flush channel, slurry chased with 20 mM PAA, 5 day clean hold", "method": "as §1, §2, §3, §4"}, "[3]": {"tested_on": "Pseudomonas aeruginosa, ATCC 9027", "experiment": "Sanitization study 3: dual adapter strokes, 100 mM PAA in flush channel, resin valve opened and closed twice, 6 day clean hold", "method": "as §1, §2, §3, §4"}}}
{"smiles": "CC(=O)OO", "note": "[PAA, peracetic acid]", "values": [{"measurement": "Outcome against acceptance criteria, study 1", "setting": "[1]", "result": "did not meet the acceptance criteria"}, {"measurement": "Result study 1, resin after sanitization", "setting": "[1]; test method 6 agar plate, 20 mM PAA", "result": 0, "unit": "CFU/g"}, {"measurement": "Outcome against acceptance criteria, study 2", "setting": "[2]; positive control G showed no challenging organism", "result": "did meet the acceptance criteria"}, {"measurement": "Result study 2, challenging organism in consolidation effluent / water rinse flowthrough after chasing slurry with 20 mM PAA", "setting": "[2]; test method 5 viable count, samples G and J, before the sanitization method", "result": 0, "unit": "CFU/mL"}, {"measurement": "Outcome against acceptance criteria, study 3", "setting": "[3]", "result": "met the acceptance criteria"}, {"measurement": "Challenging organism found after sanitization, study 3", "setting": "[3]; all sampling points", "result": "no challenging organism was discovered"}]}
